A short description of data set [1]: Lipophilicity, log P of the compound. Conditions: octanol/water; read-out: logP. Type of data set: physicochemical.
Data set [2] deals with T1, Serine/threonine-protein kinase PLK2 (Homo sapiens, UniProt Q9NYY3).
Data set [3] can be described thus: Metabolic stability in mouse liver microsomes assessed as compound remaining at 1 uM after 30 mins. Type of data set: ADME, Microsome. The note with it: read-out: Stability. For orientation: Liver microsomes are vesicles of endoplasmic reticulum, rich in cytochrome P450 enzymes.
A short description of data set [4]: Drug uptake in Sprague-Dawley rat brain at 100 mg/kg, po measured at 6 hrs. Conditions: read-out: Drug uptake. Further details: dose 100 mg/kg, route oral. The class given is ADME, organism-based.
Data set [5] is described as follows: Plasma concentration in Sprague-Dawley rat at 200 mg/kg, po measured at 6 hrs. The class given is ADME, organism-based. Further details: dose 200 mg/kg, route oral.
The next data set concerns Rattus norvegicus. The data set can be described thus: Inhibition of Plk2-mediated phosphorylation of alpha-synuclein at Ser129 in Sprague-Dawley rat cerebral cortex at 100 to 200 mg/kg, po measured at 6 hrs by ELISA relative to control. The class given is functional. The note with it: dose mg/kg 100-200.
Data set [6] can be described thus: Drug uptake in Sprague-Dawley rat brain at 200 mg/kg, po measured at 6 hrs. Conditions: read-out: Drug uptake. Type of data set: ADME, organism-based. Further details: dose 200 mg/kg, route oral.
The nature of data set [7]: Ratio of drug level from brain to plasma in Sprague-Dawley rat at 200 mg/kg, po measured at 6 hrs. The class given is ADME, organism-based. Further details: dose 200 mg/kg, route oral. The note with it: brain and plasma, read-out: BPR.
Data set [8] is described as follows: Plasma concentration in Sprague-Dawley rat at 100 mg/kg, po measured at 6 hrs. Type of data set: ADME, organism-based. Further details: dose 100 mg/kg, route oral.
In data set [9] the target is T1, Serine/threonine-protein kinase PLK2. The source holds these as a separate data set.
Description: Inhibition of GST-tagged Plk2 (unknown origin) assessed as inhibition of DEKTDDED phosphorylation at Thr1342 after 60 mins by TR-FRET assay
For another data set, the system named is MDR1. Briefly: Efflux ratio of permeability across apical to basolateral side in […] MDCK cells expressing MDR1 at 5 uM after 120 mins by LC/MS/MS analysis. Type of data set: ADME, cell-based.
Data set [10] is described as follows: Apparent permeability across apical to basolateral side in […] MDCK2 cells at 5 uM after 120 mins by LC/MS/MS analysis. The class given is ADME, cell-based, MDCK-II. Conditions: MDCK.
Data set [11] in a line: Metabolic stability in human liver microsomes assessed as compound remaining at 1 uM after 30 mins. Type of data set: ADME, Microsome. Conditions: read-out: Stability.
Data set [12] in a line: Metabolic stability in rat liver microsomes assessed as compound remaining at 1 uM after 30 mins. Type of data set: ADME, Microsome. The note with it: read-out: Stability.
The target of data set [13] is Serine/threonine-protein kinase PLK1 (Homo sapiens, UniProt P53350). The data set can be described thus: Inhibition of GST-tagged Plk1 (unknown origin) assessed as inhibition of DEKTDDED phosphorylation at Thr1342 after 60 mins by TR-FRET assay.
Data set [14] can be described thus: Ratio of drug level from brain to plasma in Sprague-Dawley rat at 100 mg/kg, po measured at 6 hrs. The class given is ADME, organism-based. Further details: dose 100 mg/kg, route oral. Conditions: brain and plasma, read-out: BPR.

T1 sequence (Q9NYY3 whole entry): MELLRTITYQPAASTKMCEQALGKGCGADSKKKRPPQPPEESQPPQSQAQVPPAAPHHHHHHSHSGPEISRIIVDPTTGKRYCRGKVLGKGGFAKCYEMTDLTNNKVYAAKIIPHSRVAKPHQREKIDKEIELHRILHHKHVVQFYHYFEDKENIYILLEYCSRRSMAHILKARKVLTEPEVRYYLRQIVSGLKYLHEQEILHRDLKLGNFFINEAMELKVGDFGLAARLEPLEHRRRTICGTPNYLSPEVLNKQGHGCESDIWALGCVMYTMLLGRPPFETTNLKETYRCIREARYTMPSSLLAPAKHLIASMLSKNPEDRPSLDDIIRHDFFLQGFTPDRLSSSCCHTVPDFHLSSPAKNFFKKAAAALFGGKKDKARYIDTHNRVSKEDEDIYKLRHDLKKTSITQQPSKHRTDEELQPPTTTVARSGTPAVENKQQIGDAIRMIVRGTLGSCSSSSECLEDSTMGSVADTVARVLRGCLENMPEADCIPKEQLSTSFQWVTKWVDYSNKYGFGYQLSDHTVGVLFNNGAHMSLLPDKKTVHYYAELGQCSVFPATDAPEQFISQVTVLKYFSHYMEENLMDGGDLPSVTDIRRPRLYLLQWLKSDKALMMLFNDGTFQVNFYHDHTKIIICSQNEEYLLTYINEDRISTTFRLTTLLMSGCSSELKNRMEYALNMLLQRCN
Chain of Serine/threonine-protein kinase PLK1 (P53350 whole entry): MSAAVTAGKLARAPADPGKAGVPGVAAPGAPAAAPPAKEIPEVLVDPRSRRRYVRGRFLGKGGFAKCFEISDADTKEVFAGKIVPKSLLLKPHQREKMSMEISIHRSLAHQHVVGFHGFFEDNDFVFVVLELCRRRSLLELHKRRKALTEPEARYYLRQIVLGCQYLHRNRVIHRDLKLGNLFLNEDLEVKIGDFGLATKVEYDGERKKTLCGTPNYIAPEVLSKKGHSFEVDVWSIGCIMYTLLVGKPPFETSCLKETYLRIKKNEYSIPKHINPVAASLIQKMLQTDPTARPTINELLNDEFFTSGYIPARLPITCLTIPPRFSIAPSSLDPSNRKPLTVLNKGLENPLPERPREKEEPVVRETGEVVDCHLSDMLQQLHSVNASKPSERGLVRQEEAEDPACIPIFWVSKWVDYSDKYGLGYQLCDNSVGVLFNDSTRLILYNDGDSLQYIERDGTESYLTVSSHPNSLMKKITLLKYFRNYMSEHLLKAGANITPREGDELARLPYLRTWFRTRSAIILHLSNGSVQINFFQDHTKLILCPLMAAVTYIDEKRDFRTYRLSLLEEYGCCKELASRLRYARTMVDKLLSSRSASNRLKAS

As a reminder, the logP is a log measure of how a compound divides between an organic and an aqueous phase. Broadly, the IC50 is the concentration needed to halve the response being measured. Broadly, the efflux ratio is a quotient of directional permeabilities that is used to spot active efflux. As usually defined, the Papp A→B is the apparent permeability from the apical to the basolateral side of a cell layer. For the compound `CC[C@@H]1C(=O)N(C)c2cnc(-n3ccnc3-c3ccc(F)cc3)nc2N1c1ccn(C)n1`, in data set [1], the logP turned out to be 2.4. Moreover, the IC50 in data set [2] turned out to be 480 nM; in [9], 7 nM; in data set [13] it was 1350 nM. The remaining at 0.5 h, 1 µM in data set [3] amounted to 25%; in data set [11] it was 63%; in data set [12], 26%. The concentration at 6 h was 5.2 µM in [4], 4880 ng/mL in data set [5], 3.2 µM in data set [6] and 6290 ng/mL in data set [8]. Also, in the data set on Rattus norvegicus, the “inhibition (INH)” value is on record as 41%. In addition, the results for the Kp at 6 h in data set [7] and in [14] were 0.28 and 0.36, respectively. Further, in the data set on MDR1, the efflux ratio at 2 h, 5 µM was 1.1. Further, the Papp A→B at 2 h, 5 µM in data set [10] was determined as 18.5 ×10⁻⁶ cm/s.

Values taken from ChEMBL document CHEMBL2401733 (Bioorg Med Chem Lett, 2013).
